# Source: EP2982745A1, “Method for expanding immune cells” (Johann Wolfgang Goethe-Universität, Frankfurt am Main, priority 2014, dated 2016)
# How the values were obtained:
# [1] = tested on: Primary NK cells; assay: NK cell subset distribution during expansion (flow cytometry); type: cell-based, human; settings: IL-2/-15/SPV-106 at 5µM; 3, 6 and 10 days; n = 3; figure 3
# Description: (§1) NKL cell line was grown in Iscove's Modified Dulbecco's Medium (IMDM-Lonza) supplemented with 20% fetal bovine serum and recombinant human interleukine 2 (IL-2, 100 U/ml). Proliferation assay was performed by culturing 2x10^5 NKL cells/ml (96 multiwell; Nunc Thermo Scientific) in 200 µl growth medium supplemented with IL-2 (100 U/ml); IL-2/-15 (10 ng/ml); or IL-2/-15/SPV-106 5µM. Cells were counted and culture medium was changed every three days. Primary NK cells were isolated from peripheral blood of healthy donors using different methods of NK cell isolation (such as Easy Sep Human NK Cell Enrichment Kit, Stem cell Technologies or Human NK Cell Negative Selection Kit, Miltenyi). Proliferation assay was performed by culturing 2x10^6 primary NK cells/ml (24 multiwell ) in 1 ml growth medium supplemented with IL-2 (100 U/ml)/IL-15 (10 ng/ml); or IL-2/-15/SPV-106 5µM. Cells were counted and culture medium was changed every three days. Average of relative cell counts was determined microscopically using Trypan blue staining to exclude death or damaged cells.
# Primary NK cells were cultured in growth medium for 10 days in presence of IL-2/-15, IL 2/-15, or IL-2/-15/ SPV-106 (at 5µM). At 3, 6 and 10 the NK cell subset distribution (CD56^high : CD56^dim) was analysed by flow cytometry. Average of the NK cell subset ratio is shown in the graph of figure 3 (n = 3 at each time point).
# [2] = tested on: K562 target cells; assay: Europium release cytotoxicity assay of expanded NK cells; type: cell-based, human; settings: NK cells expanded by cytokines and 5µM SPV-106; E/T ratios 2.5:1, 5:1, 10:1; 4 h; figure 4
# Text: Effector cells were generated prepared as described above. As target cells, K562, a human chronic myelogenous leukemia cell line, […], were maintained in culture in RPMI 1640 medium supplemented with 10% fetal bovine serum. The medium was changed three times a week, and the cells were in the log phase of growth when used as targets in cytotoxicity assays. About 5 x10^6 target cells were washed in saline to reduce extracellular Ca^+2 content. The cell pellet was resuspended in 1 ml of labeling buffer supplemented with […] Eu(DH3C00)^3+, 100 mM DTPA, and 0.5 mg of dextran sulfate. This cell suspension was incubated for 20 min at room temperature with occasional shaking. The labeling process was stopped by the addition of […] of 100 mM CaCl2 solution per ml. After 5 min of continued incubation, the cells were washed three times in 30 ml of repair buffer and then one to two times in 10 ml of medium and were finally resuspended in CM at a concentration of 5 x 10^4 cells/ml. […] The percentage of specific cytotoxicity was calculated as follows: ((experimental release (counts)-spontaneous release (counts)) : (maximal release (counts)-spontaneous release (counts)) x 100.
# Killing activity of K562 target cells was assessed by Europium Assay as described in the following Material and Methods section.
# [3] = tested on: NKL cell line; assay: Proliferation assay of NKL cell line (cell counts); type: cell-based; settings: IL-2/-15/SPV-106 (5µM); already after 3 days of culture; counted at 3, 6 and 10 days; n = 7; figure 1
# Description: as §1
# NKL cells were cultured in growth medium for 10 days in presence of IL-2, IL-2/-15, or IL-2/-15/SPV-106 (5µM). SPV-106 is the selective activator of histone acetylase PCAF. At 3, 6 and 10 days cells were counted. Average cell number (x 10^4) is shown in the graph of figure 1 (n = 7 at each time point). […]
# [4] = tested on: Primary NK cells; assay: Proliferation assay of primary NK cells (relative cell counts, Trypan blue); type: cell-based, human; settings: IL-2/-15/SPV-106 at 5 µM; after 10 days of culture; n = 3; figure 2
# Description: as §1
# Primary NK cells isolated from peripheral blood were cultured in growth medium for 10 days in presence of IL-2/-15, or IL-2/-15/SPV-106 (5µM). At 3, 6 and 10 days cells were counted. Average of relative cell counts in comparison of 100% at day 0 is shown in the graph of figure 2 (n = 3 at each time point).
smiles,measurement,setting,value
CCCCCCCCCCCCCCC=C(C(=O)OCC)C(=O)OCC [SPV-106],NK cell subset distribution (CD56^high : CD56^dim),[1],did not change the naturally occurring NK subset distribution
same,cytotoxic capacity (killing activity of K562 target cells),[2],retained cytotoxic capacity
same,NKL cell line proliferation (average cell number),[3],enhances NKL cell line proliferation
same,primary NK cell proliferation (average of relative cell counts in comparison of 100% at day 0),[4],enhances primary NK cell proliferation
